From patent publication US20150121570A1, “GENE […] DROUGHT STRESS TOLERANCE AND T[…] WITH THE SAME” (priority 2013, published 2015)

Columns and labels:
Format in all cases: in vivo, Arabidopsis thaliana
[1] = tested on: stomata of mature leaves of wild-type and atamdr mutant plants; assay: ABA-induced stomatal closure (stomatal aperture measurement); details: 10 μm ABA for 2 h; for stomatal aperture (the ratio of width to length): 4-week-old leaves
Procedure: (§1) FIGS. 4a to 4c represent stomatal aperture and H2O2 production of wild-type, atamdr plants in response to different concentrations of ABA. […] Light-grown, 4-week-old mature leaves of wild-type and atamdr plants were incubated in stomatal opening solution for 2 h and transferred to solutions containing the 10 μM ABA for 2 h. Stomata on the abaxial surface were observed by light microscopy. […] Leaves from wild-type, atamdr plants were treated with 0 or 100 μM ABA for 2 h and transferred to 100 μg/mL DAB (3,3′-diaminobenzidine-4HCl) solution overnight. The presence and level of H2O2 in the leaves were visualized as a dark brown color.
Mature leaves of light-grown, 4-week-old wild-type and atamdr mutant plants were used for the observation of mature stomata. Detached leaves were incubated in stomatal opening solution (10 mM MES-KOH, […] CaCl2, 10 mM KCl) for 2 h and then transferred to stomatal opening solution supplemented with 0 or 10 μM ABA for 2 h. Subsequently, epidermal strips were mounted on glass slides and observed with a light microscope.
Mature leaves of light-grown, 4-week-old wild-type and atamdr mutant plants were detached and incubated in stomatal opening solution and then transferred to stomatal opening solution supplemented with various concentrations of ABA (0 and 10 μM) for 2 h. […] Stomatal aperture of wild-type plants treated with 10 μm ABA was approximately 0.09 which was 2-fold closed than that of mutant, while stomatal aperture of atamdr mutant treated with 10 μm ABA was approximately 0.175, which was 1.94-fold compared to that of wild-type plants.

[2] = tested on: mature leaves of wild-type and atamdr plants; assay: ABA-induced H2O2 production analyzed by DAB staining; details: 0 or 100 μM ABA
Procedure: as §1
To investigate the accumulation of H2O2, light-grown, 4-week-old mature leaves of wild-type (WT), atamdr plants were incubated in stomatal opening solution for 2 h and treated with 0 or 100 μM ABA. Leaves were transferred to 100 μg/mL DAB (3,3′-diaminobenzidine-4HCl) solution overnight, and washed and fixed by 96% ethanol. Leaves were observed after complete chlorosis (Luis David Maldonado-Bonilla et al.; Eur J Plant Pathol. 121:439449, 2008).
To investigate the accumulation of H2O2, light-grown, 4-week-old mature leaves of wild-type and atamdr plants were treated with 0 or 100 μM ABA, and stained with 100 ng/mL DAB (3,3′-diaminobenzidine-4HCl) solution in dark.

AtAIRP2 gene expression = assay: Gene expression after ABA treatment by RT-PCR; details: atamdr mutant, 300 μM ABA hormone, 1 hour and 3 hours
Procedure: FIGS. 2a to 2d represent the expression patterns of AtAMDR in response to various abiotic stress conditions. Total RNA was prepared from light-grown, 7-day-old Arabidopsis seedlings, which had been treated with drought (FIG. 2a), cold (FIG. 2b), high salinity (300 mM NaCl) (FIG. 2c) or 100 μM ABA (FIG. 2d). Induction patterns of AtAMDR were investigated by RT-PCR. RD29A was used as representative control gene for drought, cold and salt stress, and Rab18 was used as control gene for ABA.
Total RNA was prepared from 7-day-old Arabidopsis seedlings, which had been treated with drought (1-2 h), cold (4° C. for 6-12 h), high salinity (300 mM NaCl for 1-3 h) or 100 μM ABA (1-3 h). Induction patterns of AtAMDR were investigated by RT-PCR.
In order to determine expressions of the AtAMDR gene to drought stress, the wild type Arabidopsis thaliana seedlings which were grown on medium for 2 weeks were exposed in the air, and sampled after 1 hour and 2 hours. In order to determine expressions of the AtAMDR gene to salt stress, the wild type Arabidopsis thaliana seedlings which were grown on medium for 2 weeks were treated with 300 mM sodium chloride, and sampled after 1 hour and 3 hours. […]
The AtAIRP2 gene expressions in various abiotic stresses were analyzed by RT-PCR. […]

CC1=CC(=O)CC(C)(C)[C@@]1(O)/C=C/C(C)=C\C(=O)O [ABA, abscisic acid]
stomatal aperture of atamdr mutant compared to that of wild-type plants [1]: 1.94 fold
stomatal aperture (the ratio of width to length) ([1]; atamdr mutant): approximately 0.175
stomatal aperture (the ratio of width to length) ([1]; wild-type plants): approximately 0.09
accumulation of H2O2 ([2]; atamdr leaves): significantly delayed
accumulation of H2O2 ([2]; wild-type leaves): drastically arisen
AtAIRP2 gene expression (AtAIRP2 gene expression): not affected
